{"source": "paper PMC5049785", "about": "“Characterization of Novel Antimalarial Compound ACT-451840: Preclinical Assessment of Activity and Dose–Efficacy Modeling” (PLoS Medicine, 2016)", "key": {"P. berghei": {"test_system": "P. berghei", "assay": "In vitro (ex vivo) activity against P. berghei, [3H]-hypoxanthine incorporation", "type": "cell-based, Plasmodium berghei", "details": "16 h exposure + 8 h incorporation", "method": "In vitro (ex vivo) activity against the mouse malaria parasite P. berghei was measured at the Swiss TPH as described elsewhere, with the following modifications: heparinised blood of P. berghei infected and uninfected control female NMRI mice (final hematocrit of 2.5%) was used and exposed to compounds for 16 h followed by 8 h of [^3H]-hypoxanthine incorporation."}, "[1]": {"test_system": "synchronous cultures of P. falciparum NF54", "assay": "In vitro time-, stage- and concentration-dependent effects", "type": "cell-based, Plasmodium falciparum", "details": "6 or 24 h exposure", "method": "In vitro time-, stage-, and concentration-dependent effects were assessed using pyrimethamine as a stage-specific and slow-acting control, as described elsewhere."}, "[2]": {"test_system": "P. falciparum D6 (Sierra Leone)", "assay": "[3H]-hypoxanthine incorporation assay, D6", "type": "cell-based, Plasmodium falciparum", "details": "read-out: 50% inhibitory concentration (IC50); D6, resistance MFQ; mean ± SD"}, "[3]": {"assay": "General oral toxicity study up to 4 wk, dogs", "type": "in vivo"}, "[4]": {"test_system": "P. falciparum V1/S (Vietnam)", "assay": "[3H]-hypoxanthine incorporation assay, V1/S", "type": "cell-based, Plasmodium falciparum", "details": "read-out: 50% inhibitory concentration (IC50); V1/S, resistance CQ, SUL, PYR, CYC; mean ± SD"}, "[5]": {"assay": "Pharmacokinetic study in healthy mice", "type": "in vivo, female NMRI mice", "method": "Female NMRI mice were purchased from Harlan (Horst, The Netherlands) by Actelion Pharmaceuticals. ACT-451840 was formulated as a solution in corn oil and dosed via oral gavage at 10, 100, and 300 mg/kg. Serial blood samples were collected at 0.5, 2, 4, and 8 h after dosing from two mice and after 1, 3, 6, and 24 h from two other mice, creating composite PK profiles from, in total, four mice per dose. Blood samples were analyzed using liquid chromatography coupled to tandem mass spectrometry (LC-MS/MS) after protein precipitation. PK parameters were estimated using non-compartmental analysis from the composite profiles."}, "[6]": {"test_system": "P. vivax clinical isolates (Papua, Indonesia)", "assay": "Ex vivo drug susceptibility, P. vivax clinical isolates", "type": "cell-based, Plasmodium vivax", "details": "P. vivax clinical isolates, n = 34 (open symbols); read-out: median IC50", "method": "[…]. Thick blood films made from each well were stained with 5% Giemsa solution for 30 min and examined microscopically. The number of schizonts per 200 asexual-stage parasites was determined for each drug concentration and normalized to the control well."}, "[7]": {"test_system": "GFP-transfected P. berghei ANKA strain", "assay": "In vivo efficacy, P. berghei mouse model", "set-up": "species or system Plasmodium berghei in female NMRI mice", "details": "for infected mice cured: no detectable parasites on Day 30, n=5", "method": "In vivo efficacy against P. berghei was conducted at the Swiss TPH as previously described, with the modification that female NMRI mice from Harlan (Horst, The Netherlands) (n = 3) were infected with a GFP-transfected P. berghei ANKA strain (kindly donated by A. P. Waters and C. J. Janse, Leiden University Medical Center, The Netherlands) and parasitemia was determined using standard flow cytometry techniques. ACT-451840 was dissolved or suspended in corn oil before dosing and administered 24 h after infection (single-dose regimen) or 24, 48, and 72 h after infection (triple-dose regimen). With the single-dose regimen, blood was collected on Day 3 (72 h after infection). Samples for the triple-dose regimens were collected on Day 4 (96 h after infection). Antimalarial activity was calculated as the difference between the mean percent parasitemia for the control and treated groups expressed as a percent relative to the control group, consisting of five mice. Control mice were euthanized on Day 4 in order to prevent death typically occurring on Day 6. For the consistency in PK/PD modeling, Day 5 instead of Day 6 was considered the day of death, because treated animals were always euthanized one day before their natural death for animal welfare reasons. Animals were considered cured if there were no detectable parasites on Day 30 post-infection. To confirm the reliability of this assumption, blood from the surviving mice in curative experiments was inoculated into uninfected mice, and no parasitemia developed in these mice even after 30 d. The antimalarial efficacy is defined either as antimalarial activity or as survival: the two readouts of the P. berghei murine model."}, "[8]": {"details": "cited from earlier work"}, "[9]": {"assay": "Blood to plasma ratio with 14C-labeled compound", "type": "in vitro ADME", "details": "human fresh whole-blood, 0.5 μg/mL, 60 minutes, 37 °C", "method": "The blood to plasma ratio was determined using ^14C-labeled ACT-451840 at Actelion Pharmaceuticals Ltd. (Allschwil, Switzerland). For this, human fresh whole-blood was spiked with a mixture of non-labeled and ^14C-labeled ACT-451840 at a nominal concentration of 0.5 μg / mL and incubated for 60 minutes on a rotary mixer at 37 °C. Radioactivity was determined by liquid scintillation counting in whole blood and after preparation of plasma."}, "[10]": {"details": "single oral 10 mg/kg in corn oil"}, "[11]": {"details": "single oral 100 mg/kg in corn oil"}, "[12]": {"details": "single oral 300 mg/kg in corn oil"}, "[13]": {"details": "single-dose regimen, oral 10 mg/kg"}, "[14]": {"details": "single-dose regimen, oral 15 mg/kg"}, "[15]": {"details": "single-dose regimen, oral 20 mg/kg"}, "[16]": {"details": "single-dose regimen, oral 25 mg/kg"}, "[17]": {"details": "single-dose regimen, oral 30 mg/kg"}, "[18]": {"details": "single-dose regimen, oral 60 mg/kg"}, "[19]": {"details": "single-dose regimen, oral 80 mg/kg"}, "[20]": {"details": "single-dose regimen, oral 100 mg/kg"}, "[21]": {"details": "single-dose regimen, oral 300 mg/kg"}, "[22]": {"details": "triple-dose regimen, oral 3 mg/kg once per day"}, "[23]": {"details": "triple-dose regimen, oral 50 mg/kg once per day"}, "[24]": {"details": "triple-dose regimen, oral 100 mg/kg once per day"}, "[25]": {"details": "triple-dose regimen, oral 300 mg/kg once per day"}, "[26]": {"details": "triple-dose regimen, oral 2 x 15 mg/kg (twice per day)"}, "[27]": {"details": "triple-dose regimen, oral 2 x 30 mg/kg (twice per day)"}}, "data": [{"smiles": "CC(=O)N1CCN(c2ccc(CN(C(=O)/C=C/c3ccc(C(C)(C)C)cc3)[C@@H](Cc3ccccc3)C(=O)N3CCN(Cc4ccc(C#N)cc4)CC3)cc2)CC1", "note": "[ACT-451840]", "values": [{"measurement": "IC50", "setting": "P. berghei", "result": 13.5, "unit": "nM"}, {"measurement": "stage specificity of growth reduction", "setting": "[1]", "result": "affected all asexual erythrocytic stages equally"}, {"measurement": "IC50", "setting": "[2]", "result": "0.5 ± 0.1", "unit": "nM"}, {"measurement": "no-observed-adverse-effect level", "setting": "[3]; oral", "result": 100, "unit": "mg/kg/day"}, {"measurement": "local gastrointestinal toxicity", "setting": "[3]; oral up to 1,000 mg/kg/day", "result": "no evidence of local gastrointestinal toxicity"}, {"measurement": "IC50", "setting": "[4]", "result": 0.3, "unit": "nM"}, {"measurement": "AUC (ng/mL*h)", "setting": "[5]; [10]", "result": "1,780 ± 18%"}, {"measurement": "Cmax (ng/mL)", "setting": "[5]; [10]", "result": "415 ± 20", "unit": "%"}, {"measurement": "Tmax", "setting": "[5]; [10]", "result": 2.5, "unit": "h"}, {"measurement": "AUC (ng/mL*h)", "setting": "[5]; [11]", "result": "32,900 ± 36%"}, {"measurement": "Cmax (ng/mL)", "setting": "[5]; [11]", "result": "3,910 ± 20%"}, {"measurement": "Tmax", "setting": "[5]; [11]", "result": 6, "unit": "h"}, {"measurement": "AUC (ng/mL*h)", "setting": "[5]; [12]", "result": "60,900 ± 33%"}, {"measurement": "Cmax (ng/mL)", "setting": "[5]; [12]", "result": "7,010 ± 32%"}, {"measurement": "Tmax", "setting": "[5]; [12]", "result": 7, "unit": "h"}, {"measurement": "IC50", "setting": "[6]", "result": 3, "unit": "nM"}, {"measurement": "infected mice cured", "setting": "[7]; 100 mg/kg triple-dose regimen", "result": 20, "unit": "%"}, {"measurement": "infected mice cured", "setting": "[7]; 300 mg/kg triple-dose regimen", "result": 100, "unit": "%"}, {"measurement": "ED90", "setting": "[7]; oral triple-dose regimen, calculated from data in S2 Text", "result": 13, "unit": "mg/kg"}, {"measurement": "Antimalarial activity (%)", "setting": "[7]; [13]", "result": 21.75, "unit": "%"}, {"measurement": "Survival", "setting": "[7]; [13]", "result": 5.0, "unit": "days"}, {"measurement": "Antimalarial activity (%)", "setting": "[7]; [14]", "result": 39.00, "unit": "%"}, {"measurement": "Survival", "setting": "[7]; [14]", "result": 5.0, "unit": "days"}, {"measurement": "Antimalarial activity (%)", "setting": "[7]; [15]", "result": 76.23, "unit": "%"}, {"measurement": "Survival", "setting": "[7]; [15]", "result": 7.0, "unit": "days"}, {"measurement": "Antimalarial activity (%)", "setting": "[7]; [16]", "result": 90.29, "unit": "%"}, {"measurement": "Survival", "setting": "[7]; [16]", "result": 6.7, "unit": "days"}, {"measurement": "Antimalarial activity (%)", "setting": "[7]; [17]", "result": 97.42, "unit": "%"}, {"measurement": "Survival", "setting": "[7]; [17]", "result": 7.9, "unit": "days"}, {"measurement": "Antimalarial activity (%)", "setting": "[7]; [18]", "result": 99.40, "unit": "%"}, {"measurement": "Survival", "setting": "[7]; [18]", "result": 13.7, "unit": "days"}, {"measurement": "Antimalarial activity (%)", "setting": "[7]; [19]", "result": 98.88, "unit": "%"}, {"measurement": "Survival", "setting": "[7]; [19]", "result": 12.7, "unit": "days"}, {"measurement": "Antimalarial activity (%)", "setting": "[7]; [20]", "result": 99.19, "unit": "%"}, {"measurement": "Survival", "setting": "[7]; [20]", "result": 12.4, "unit": "days"}, {"measurement": "Antimalarial activity (%)", "setting": "[7]; [21]", "result": 98.84, "unit": "%"}, {"measurement": "Survival", "setting": "[7]; [21]", "result": 15.7, "unit": "days"}, {"measurement": "Antimalarial activity (%)", "setting": "[7]; [22]", "result": 0.00, "unit": "%"}, {"measurement": "Survival", "setting": "[7]; [22]", "result": 6.0, "unit": "days"}, {"measurement": "Antimalarial activity (%)", "setting": "[7]; triple-dose regimen, oral 10 mg/kg once per day", "result": 32.25, "unit": "%"}, {"measurement": "Antimalarial activity (%)", "setting": "[7]; triple-dose regimen, oral 30 mg/kg once per day", "result": 99.53, "unit": "%"}, {"measurement": "Antimalarial activity (%)", "setting": "[7]; [23]", "result": 99.78, "unit": "%"}, {"measurement": "Survival", "setting": "[7]; [23]", "result": 15.6, "unit": "days"}, {"measurement": "Antimalarial activity (%)", "setting": "[7]; [24]", "result": 99.84, "unit": "%"}, {"measurement": "Survival", "setting": "[7]; [24]", "result": 21.8, "unit": "days"}, {"measurement": "Antimalarial activity (%)", "setting": "[7]; [25]", "result": 99.78, "unit": "%"}, {"measurement": "Survival", "setting": "[7]; [25]", "result": 30.0, "unit": "days"}, {"measurement": "Antimalarial activity (%)", "setting": "[7]; [26]", "result": 99.06, "unit": "%"}, {"measurement": "Survival", "setting": "[7]; [26]", "result": 9.0, "unit": "days"}, {"measurement": "Antimalarial activity (%)", "setting": "[7]; [27]", "result": 99.81, "unit": "%"}, {"measurement": "Survival", "setting": "[7]; [27]", "result": 14.6, "unit": "days"}, {"measurement": "exposure (AUC) observed in humans", "setting": "[8]; single 500 mg dose, fed human subjects", "result": "1,408 ng*h/mL"}, {"measurement": "terminal half-life", "setting": "[8]; single ascending dose study", "result": 34, "unit": "h"}, {"measurement": "tolerability", "setting": "[8]; single ascending dose, first-in-man study in healthy male participants", "result": "well tolerated"}, {"measurement": "blood to plasma concentration ratio", "setting": "[9]", "result": 0.6}]}]}
